Source: patent US7256187B2, “Rifamycin C-11 oxime derivatives effective against drug-resistant microbes” (Cumbre Pharmaceuticals Inc., priority 2004, dated 2007)
Converted amounts (≈) assume the structure as drawn.

Legend:
Format in all cases: cell-based
[1] = system: Staphylococcus aureus ATCC29213; test: MIC, microbroth dilution; conditions: Staphylococcus aureus ATCC29213, rifS; read-out: Antimicrobial activity (MIC)
[2] = system: Staphylococcus aureus ATCC29213 rpoB^D417Y; test: microbe, parasite or virus in culture; conditions: Staphylococcus aureus ATCC29213 rpoB^D417Y, rifR; read-out: Antimicrobial activity (MIC)
Experimental: (§1) Representative compounds were assayed for antimicrobial activity as follows: Minimum Inhibitory Concentrations (“MICs”) were determined by the microbroth dilution method as per NCCLS guidelines (National Committee for Clinical Laboratory Standards. 2000. Methods for dilution antimicrobial susceptibility tests for bacteria that grow aerobically, 5th ed. M7-A5. National Committee for Clinical Laboratory Standards, Wayne, Pa.), except that all growth incubations were conducted at 37° C. Bacterial cultures were tested in the following bacteriological media: S. aureus, S. epidermidis, and E. coli in Cation-Adjusted Mueller-Hinton Broth, S. pneumoniae in THY Broth supplemented with 1 mg/mL catalase under 5% CO2 atmosphere, S. pyogenes in THY Broth, E. faecalis in BHI Broth, H. influenzae in BHI Broth supplemented with 0.75 μL of 1 mg/mL NAD and 150 μL of 1 mg/ml hematin per 5 mL, and M. smegmatis in Middlebrook Broth plus ADC Enrichment.
(§2) S. aureus ATCC 29213 RpoB^H418Y is a rifampin-resistant strain with a mutation in the RpoB gene of RNA polymerase. […] S. aureus EN1252a gyrA^S84L grlA^S80F is a quinolone-resistant strain due to double gene mutations of DNA gyrase and topoisomerase IV.

[3] = system: Staphylococcus aureus ATCC29213 rpoB^H418Y; test: microbe, parasite or virus in culture; conditions: Staphylococcus aureus ATCC29213 rpoB^H418Y, rifR; read-out: Antimicrobial activity (MIC)
Experimental: as §1, §2

[4] = system: Staphylococcus aureus EN1252a gyrA^S84L grlA^S80F; test: microbe, parasite or virus in culture; conditions: Staphylococcus aureus EN1252a gyrA^S84L grlA^S80F, cipR; read-out: Antimicrobial activity (MIC)
Experimental: as §1, §2

[5] = system: Staphylococcus epidermidis ATCC12228; test: MIC, microbroth dilution; conditions: Staphylococcus epidermidis ATCC12228, rifS; read-out: Antimicrobial activity (MIC)
[6] = system: Streptococcus pneumoniae ATCC6303; test: MIC, microbroth dilution; conditions: Streptococcus pneumoniae ATCC6303, rifS; read-out: Antimicrobial activity (MIC)
[7] = system: Streptococcus pyogenes ATCC19615; test: MIC, microbroth dilution; conditions: Streptococcus pyogenes ATCC19615, rifS; read-out: Antimicrobial activity (MIC)
[8] = system: Enterococcus faecalis ATCC29212; test: MIC, microbroth dilution; conditions: Enterococcus faecalis ATCC29212, rifS; read-out: Antimicrobial activity (MIC)
[9] = system: Haemophilus influenzae ATCC10211; test: MIC, microbroth dilution; conditions: Haemophilus influenzae ATCC10211, rifS; read-out: Antimicrobial activity (MIC)
[10] = system: Escherichia coli ATCC25922; test: MIC, microbroth dilution; conditions: Escherichia coli ATCC25922, rifS; read-out: Antimicrobial activity (MIC)
[11] = system: Mycobacterium smegmatis ATCC700084; test: MIC, microbroth dilution; conditions: Mycolicibacterium smegmatis; Mycobacterium smegmatis ATCC700084, rifS; read-out: Antimicrobial activity (MIC)

| Compound | MIC [1] | MIC [2] | MIC [3] | MIC [4] | MIC [5] | MIC [6] | MIC [7] | MIC [8] | MIC [9] | MIC [10] | MIC [11] |
| --- | --- | --- | --- | --- | --- | --- | --- | --- | --- | --- | --- |
| COc1c(N2CCN(C(=O)CO/N=C3/c4c5c(C)c(O)c6c4C(=O)C(N4CCOCC4)=C(NC(=O)/C(C)=C\C=C\[C@H](C)[C@H](O)[C@@H](C)[C@@H](O)[C@@H](C)[C@H](OC(C)=O)[C@H](C)[C@@H](OC)/C=C/O[C@@]3(C)O5)C6=O)C(C)C2)c(F)cc2c(=O)c(C(=O)O)cn(C3CC3)c12 (stereo partly drawn) [Example 30, 11-Deoxy-3-(morpholin-4-yl)-11-{2-oxo-2-[4-(3-carboxy-1-cyclopropyl-6-fluoro-8-methoxy-4-oxo-1,4-dihydroquinolin-7-yl)-2-methylpiperazin-1-yl]ethoxyimino}rifamycin S] | 0.004 to 0.5 µg/mL (≈ 0.0033 to 0.413 µM) | 0.25 to 32 µg/mL (≈ 0.206 to 26.4 µM) | 0.125 to 16 µg/mL (≈ 0.103 to 13.2 µM) | 0.004 to 0.5 µg/mL (≈ 0.0033 to 0.413 µM) | 0.0005 to 0.063 µg/mL (≈ 0.000413 to 0.052 µM) | 0.0002 to 0.125 µg/mL (≈ 0.000165 to 0.103 µM) | 0.0005 to 0.063 µg/mL (≈ 0.000413 to 0.052 µM) | 2 to 32 µg/mL (≈ 1.65 to 26.4 µM) | 0.03 to 2 µg/mL (≈ 0.0248 to 1.65 µM) | 0.125 to 8 µg/mL (≈ 0.103 to 6.6 µM) | 0.5 to 64 µg/mL (≈ 0.413 to 52.8 µM) |
| CO[C@H]1/C=C/O[C@@]2(C)Oc3c(C)c(O)c4c(c3/C2=N/O)C(=O)C(N2CCN(c3cc5c(cc3F)c(=O)c(C(=O)O)cn5C3CC3)CC2)=C(NC(=O)/C(C)=C\C=C\[C@H](C)[C@H](O)[C@@H](C)[C@@H](O)[C@@H](C)[C@H](OC(C)=O)[C@@H]1C)C4=O [Example 33, 11-Deoxy-3-[4-(3-carboxy-1-cyclopropyl-6-fluoro-4-oxo-1,4-dihydroquinolin-7-yl)piperazin-1-yl]-11-hydroxyiminorifamycin S] | 0.004 to 0.5 µg/mL (≈ 0.00385 to 0.481 µM) | 0.25 to 32 µg/mL (≈ 0.24 to 30.8 µM) | 0.125 to 16 µg/mL (≈ 0.12 to 15.4 µM) | 0.004 to 0.5 µg/mL (≈ 0.00385 to 0.481 µM) | 0.0005 to 0.063 µg/mL (≈ 0.000481 to 0.0606 µM) | 0.0002 to 0.125 µg/mL (≈ 0.000192 to 0.12 µM) | 0.0005 to 0.063 µg/mL (≈ 0.000481 to 0.0606 µM) | 2 to 32 µg/mL (≈ 1.92 to 30.8 µM) | 0.03 to 2 µg/mL (≈ 0.0288 to 1.92 µM) | 0.125 to 8 µg/mL (≈ 0.12 to 7.69 µM) | 0.5 to 64 µg/mL (≈ 0.481 to 61.5 µM) |
| CO[C@H]1/C=C/O[C@@]2(C)Oc3c(C)c(O)c4c(c3/C2=N/O)C(=O)C(N2CCOCC2)=C(NC(=O)/C(C)=C\C=C\[C@H](C)[C@H](O)[C@@H](C)[C@@H](O)[C@@H](C)[C@H](OC(C)=O)[C@@H]1C)C4=O [Example 34, 11-Deoxy-3-(morpholin-4-yl)-11-hydroxyiminorifamycin S] | 0.004 to 0.5 µg/mL (≈ 0.00503 to 0.628 µM) | 0.25 to 32 µg/mL (≈ 0.314 to 40.2 µM) | 0.125 to 16 µg/mL (≈ 0.157 to 20.1 µM) | 0.004 to 0.5 µg/mL (≈ 0.00503 to 0.628 µM) | 0.0005 to 0.063 µg/mL (≈ 0.000628 to 0.0792 µM) | 0.0002 to 0.125 µg/mL (≈ 0.000251 to 0.157 µM) | 0.0005 to 0.063 µg/mL (≈ 0.000628 to 0.0792 µM) | 2 to 32 µg/mL (≈ 2.51 to 40.2 µM) | 0.03 to 2 µg/mL (≈ 0.0377 to 2.51 µM) | 0.125 to 8 µg/mL (≈ 0.157 to 10.1 µM) | 0.5 to 64 µg/mL (≈ 0.628 to 80.4 µM) |
| CO/N=C1/c2c3c(C)c(O)c4c2C(=O)C(N2CCOCC2)=C(NC(=O)/C(C)=C\C=C\[C@H](C)[C@H](O)[C@@H](C)[C@@H](O)[C@@H](C)[C@H](OC(C)=O)[C@H](C)[C@@H](OC)/C=C/O[C@@]1(C)O3)C4=O [Example 35, 11-Deoxy-3-(morpholin-4-yl)-11-methoxyiminorifamycin S] | 0.004 to 0.5 µg/mL (≈ 0.00494 to 0.617 µM) | 0.25 to 32 µg/mL (≈ 0.309 to 39.5 µM) | 0.125 to 16 µg/mL (≈ 0.154 to 19.8 µM) | 0.004 to 0.5 µg/mL (≈ 0.00494 to 0.617 µM) | 0.0005 to 0.063 µg/mL (≈ 0.000617 to 0.0778 µM) | 0.0002 to 0.125 µg/mL (≈ 0.000247 to 0.154 µM) | 0.0005 to 0.063 µg/mL (≈ 0.000617 to 0.0778 µM) | 2 to 32 µg/mL (≈ 2.47 to 39.5 µM) | 0.03 to 2 µg/mL (≈ 0.037 to 2.47 µM) | 0.125 to 8 µg/mL (≈ 0.154 to 9.88 µM) | 0.5 to 64 µg/mL (≈ 0.617 to 79 µM) |
| C=CCO/N=C1/c2c3c(C)c(O)c4c2C(=O)C(N2CCOCC2)=C(NC(=O)/C(C)=C\C=C\[C@H](C)[C@H](O)[C@@H](C)[C@@H](O)[C@@H](C)[C@H](OC(C)=O)[C@H](C)[C@@H](OC)/C=C/O[C@@]1(C)O3)C4=O [Example 36, 11-Deoxy-3-(morpholin-4-yl)-11-allyloxyiminorifamycin S] | 0.004 to 0.5 µg/mL (≈ 0.00478 to 0.598 µM) | 0.25 to 32 µg/mL (≈ 0.299 to 38.3 µM) | 0.125 to 16 µg/mL (≈ 0.15 to 19.1 µM) | 0.004 to 0.5 µg/mL (≈ 0.00478 to 0.598 µM) | 0.0005 to 0.063 µg/mL (≈ 0.000598 to 0.0754 µM) | 0.0002 to 0.125 µg/mL (≈ 0.000239 to 0.15 µM) | 0.0005 to 0.063 µg/mL (≈ 0.000598 to 0.0754 µM) | 2 to 32 µg/mL (≈ 2.39 to 38.3 µM) | 0.03 to 2 µg/mL (≈ 0.0359 to 2.39 µM) | 0.125 to 8 µg/mL (≈ 0.15 to 9.57 µM) | 0.5 to 64 µg/mL (≈ 0.598 to 76.6 µM) |
| CO[C@H]1/C=C/O[C@@]2(C)Oc3c(C)c(O)c4c(O)c(c(/C=N/N5CCN(C)CC5)c(O)c4c3/C2=N/O)NC(=O)/C(C)=C\C=C\[C@H](C)[C@H](O)[C@@H](C)[C@@H](O)[C@@H](C)[C@H](OC(C)=O)[C@@H]1C [Example 37, 11-Deoxy-11-hydroxyimino-3-(4-methylpiperazin-1-yl)aminomethenylrifamycin SV] | 0.004 to 0.5 µg/mL (≈ 0.00477 to 0.597 µM) | 0.25 to 32 µg/mL (≈ 0.298 to 38.2 µM) | 0.125 to 16 µg/mL (≈ 0.149 to 19.1 µM) | 0.004 to 0.5 µg/mL (≈ 0.00477 to 0.597 µM) | 0.0005 to 0.063 µg/mL (≈ 0.000597 to 0.0752 µM) | 0.0002 to 0.125 µg/mL (≈ 0.000239 to 0.149 µM) | 0.0005 to 0.063 µg/mL (≈ 0.000597 to 0.0752 µM) | 2 to 32 µg/mL (≈ 2.39 to 38.2 µM) | 0.03 to 2 µg/mL (≈ 0.0358 to 2.39 µM) | 0.125 to 8 µg/mL (≈ 0.149 to 9.55 µM) | 0.5 to 64 µg/mL (≈ 0.597 to 76.4 µM) |
